O=C(O)c1cccnc1Nc1cccc(C(F)(F)F)c1
solubility (mole fraction)
Settings	288.15 K	293.15 K	298.15 K	303.15 K	308.15 K	313.15 K	318.15 K	323.15 K	328.15 K
in isopropanol	0.00751	0.00844	0.00941	0.0107	0.0131	0.0152	0.0179	0.0209	0.0235
in isopropyl acetate	0.0228	0.0264	0.029	0.0324	0.0372	0.0435	0.05	0.0564	0.0637
in methanol	0.00655	0.00766	0.00862	0.00967	0.0107	0.0118	0.0135	0.0151	0.0171
in n-heptane	0.00171	0.00276	0.00404	0.00562	0.00726	0.00951	0.0121	0.0145	0.0172
in n-hexane	0.00145	0.00256	0.00382	0.00539	0.00678	0.00896	0.011	0.0131	0.0155
in n-propanol	0.00879	0.00999	0.011	0.0129	0.0147	0.0174	0.0202	0.0232	0.0266
in toluene	–	0.00154	0.00242	0.00395	0.00532	0.0073	0.00991	0.0133	0.0172
